Source: US6433012B1, “Method for inhibiting inflammatory disease” (Large Scale Biology Corp., priority 1998, dated 2002)
Marks after values point to notes of the source that are not given here.

Assays:
[1] = test system: angiogenesis induced by hFGF-B in the chick chorioallantoic membrane (CAM); test: Chick chorioallantoic membrane (CAM) assay, 14C-proline incorporation into collagenous protein; type: in vivo; design: inhibition of hFGF-B-induced angiogenesis: dose or concentration left out as unconfirmed
Description: This example illustrates the anti-angiogenic properties of methyl-3,5-diiodo-4-(4′-methoxyphenoxy)benzoate in the chick chorioallantoic membrane assay (CAM). The endpoint of the CAM assay was a quantitative determination of basement membrane biosynthesis by measuring the incorporation of ^14C-proline into Type IV collagenous protein.
The CAM assay involves the development of live chick embryos in Petri dishes under special sterile conditions. Therefore, only limited numbers of embryos can be used for evaluation of compounds in a single experiment. For this reason, two separate assays were conducted to test the three Biosource compounds at three concentrations per compound. In this assay, a known angiogenesis inhibitor, 2-methoxyestradiol (2-ME), was used as the positive control, and human fibroblast growth factor (hFGF) was used to induce angiogenesis in the CAM.
For testing, a minimum amount of acetone-methanol (1:1) was added to the test compounds for sterilization. The acetone-methanol mixture was then evaporated to dryness in a sterile hood. The compounds were dissolved dimethyl sulfoxide (DMSO) first and then diluted with saline containing methylcellulose. The final concentrations were 2% DMSO and 0.5% methylcellulose. All test solutions were added to each CAM in […].
Fresh fertile eggs were incubated for three days in a standard egg incubator. On Day 3, eggs were cracked under sterile conditions and embryos were placed in 20×100 mm plastic Petri dishes and cultivated at 37° C. in an embryo incubator with a water reservoir on the bottom shelf. Air was continuously bubbled into the water reservoir by using a small pump so that the humidity in the incubator was kept constant. Observations were made daily to ensure that all embryos were healthy. Dead or unhealthy embryos were removed from the incubator immediately to avoid contamination. On Day 9, a sterile silicone ring cup was placed on each CAM and […] of ^14C-proline with or without the test compound plus 2.5 ng of hFGF dissolved in saline containing 0.5% methylcellulose was delivered into each ring cup in a sterile hood. 2-ME was tested in parallel to serve as a reference compound. After addition of test materials, the embryos were returned to the incubator and cultivation continued. On Day 12, all embryos were transferred to a cold room at 4-10° C. The antiangiogenic effect of each test compound was determined by using the collagenase assay (Maragoudakis, et al., J. Pharm. Exp. Ther. 251:679-682 (1989)) to measure ^14C-proline incorporation into collagenous protein.
With the embryos placed on ice, a piece of CAM 10 mm in diameter was cut off under each ring cup and placed in a separate tube. To each tube was added 1.0 mL of phosphate-buffered saline (PBS, pH 7.3) containing 0.11 mg cycloheximide and 0.17 mg dipyridyl. The tubes were placed in a boiling water bath for 10 min and then cooled to room temperature. The PBS in each tube was discarded after centrifugation at 3000× g for 10 min. The CAM residue was washed once with 3 mL of 15% TCA and then three times with 3 mL of 5% TCA. Centrifugation was carried out as described above between each washing. At this point all non-protein bound radioactivity was removed, and the CAM containing the newly synthesized ^14C-collagenous protein was suspended in 0.9 mL of 0.1 N NaOH and 1.1 mL of HEPES buffer at pH 7.4. The pH of the sample was neutralized with 0.8 N HCl, using phenol red as indicator.
To digest the ^14C-collagenous protein, 7.5 units of collagenase and 500 nmol of calcium chloride in […] of HEPES buffer was added to the above samples, and mixtures were incubated at 37° C. for 4 h. The reaction was stopped by adding 1.0 mL of 20% TCA containing 5 mg of tannic acid into each tube. After vortex mixing, the samples were centrifuged at 3000× g for 10 min. […]

[2] = Oral (gavage) toxicity in nude mice; type: in vivo; conditions: doses as high as 1,000 mg/kg-day for 60 to 180 days
[3] = Bone marrow toxicity, histological examination; type: in vivo; conditions: 500 mg/kg-day by gavage for 4 weeks
Description: Swiss Webster mice were exposed to the drug at 500 mg/kg-day by gavage for a period of 4 weeks, and bone marrow was examined histologically.

[4] = test system: MDA MB-231 human breast carcinoma xenografts; test: Tumor growth delay, MDA MB-231 xenografts; type: in vivo, Swiss NCr nude (nu/nu) female mice; conditions: oral treatment, 6 weeks of therapy
Description: (§1) Intraperitoneally administered cyclophosphamide (CTX; Cytoxan; 150 mg/kg), which is used in some regimens for adjuvant breast cancer therapy was used as a positive control.

[5] = test system: OVCAR-3 human ovarian carcinoma xenografts; test: Tumor growth delay, OVCAR-3 xenografts; type: in vivo, nude mice; conditions: oral treatment, at 5 weeks
Description: as §1

MCF-7 cell cultures = test: Cytotoxicity in vitro (reduction of cell number); type: cell-based; conditions: Homo sapiens, MCF7; treated for 48 h; read-out: IC50 (50% reduction of cell number relative to vehicle-treated control)
[6] = test system: MDA MB-231 and MCF-7 cells; test: Nuclear morphology of breast carcinoma cells; type: cell-based, human; conditions: 1 μ for 48 h
[7] = Table 1 experiment, dose 8.3 μg/CAM
[8] = Table 1 experiment, dose 25 μg/CAM
[9] = Table 1 experiment, dose 75 μg/CAM
[10] = Table 2 experiment, dose 8.3 μg/CAM
[11] = Table 2 experiment, dose 25 μg/CAM
[12] = Table 2 experiment, dose 75 μg/CAM

COC(=O)c1cc(I)c(Oc2ccc(OC)cc2)c(I)c1 [BTO-956, methyl-3,5-diiodo-4-(4′-methoxyphenoxy)benzoate]
inhibition of hFGF-B-induced angiogenesis [1]: 30%
% Inhibition [1, 7]: 0%
^14C-Proline Incorporated into Collagenous Protein (mean ± S.E.) [1, 7]: 6884 ± 1395 cpm/mg-protien
% Inhibition [1, 8]: 19%
^14C-Proline Incorporated into Collagenous Protein (mean ± S.E.) [1, 8]: 5098 ± 785 cpm/mg-protien
% Inhibition [1, 9]: 31%
^14C-Proline Incorporated into Collagenous Protein (mean ± S.E.) [1, 9]: 4374 ± 651 cpm/mg-protien
% Inhibition [1, 10]: 10%
^14C-Proline Incorporated into Collagenous Protein (mean ± S.E.) [1, 10]: 10138 ± 1625 cpm/mg-protien
% Inhibition [1, 11]: 18%
^14C-Proline Incorporated into Collagenous Protein (mean ± S.E.) [1, 11]: 9100 ± 1664 cpm/mg-protien
% Inhibition [1, 12]: 32%
^14C-Proline Incorporated into Collagenous Protein (mean ± S.E.) [1, 12]: 7534 ± 1099^a cpm/mg-protien
gross pathology [2]: No other gross pathology
liver and kidney weights [2]: only slight and transient increases
bone marrow profiles [3]: did not differ from those of control animals
hematopoietic abnormalities [3]: no hematopoietic abnormalities
growth of tumors (relative mean tumor volume) [4]: suppressed
relative mean tumor volume, fold less than vehicle-treated controls [5]: approximately 5 fold
IC50 (MCF-7 cell cultures): 600 nM
nuclear morphology [6]: a significant number had condensed or fragmented nuclei
